# From US9604933B2, “Pyrazolochalcones as potential anticancer agents” (COUNCIL OF SCIENTIFIC AND INDUSTRIAL RESEARCH, priority 2013, dated 2017)
# Read-outs that look alike come from different tables or passages of the source.
# What was measured:
# CCRF-CEM = assay: NCI SRB cytotoxicity, leukemia CCRF-CEM; type: cell-based; details: Homo sapiens, 48 h exposure
# Experimental: (§1) The pyrazolochalcones (7e, 8e, 10e, 11e, 12e, 13e and 8f) have been tested against fifty nine human tumor cell lines derived from nine cancer types (leukemia, non-small cell lung cancer, colon cancer, CNS cancer, melanoma, ovarian cancer, renal cancer, prostate cancer and breast cancer) as per the NCI protocol. For each compound, dose response curves for individual cell lines have been measured at a minimum of five concentrations at 10 fold dilutions. A protocol of 48 h continuous drug exposure has been used, and a sulforhodamine B (SRB) protein assay has been used to estimate cell viability or growth. The concentration for 50% cell growth inhibition (GI50), 50% cell death (LC50, 50% growth) and total cell growth inhibition (TGI, 0% growth) values were tabulated (Table-1). DMSO was used as control to calculate the values of GI50, LC50 and TGI. The compounds 7e, 8e, 10e, 11e, 12e, 13e and 8f has been evaluated for their in vitro cytotoxicity in […] cell lines from nine human cancer types of leukemia (K-562, SR), non-small cell lung (Hop-62, NCI-H226, NCI-H522), colon (HCT-116, HCT-15, HCC-2998), CNS (SF-539), melanoma (SK-MEL-5, UACC-62, M14), ovarian (IGROV1), renal (A498), prostate (PC3) and breast (BT-549, MDA-MB-435, HS578T) origin. The results are expressed as percent of cell growth determined relative to that of untreated control cells (Table 2).
# RPMI-8226 = assay: NCI SRB cytotoxicity, leukemia RPMI-8226; type: cell-based; details: Homo sapiens, 48 h exposure
# Experimental: as §1
# A549/ATCC = assay: NCI SRB cytotoxicity, non-small cell lung A549/ATCC; type: cell-based; details: Homo sapiens, 48 h exposure
# Experimental: as §1
# HOP-62 = assay: NCI SRB cytotoxicity, non-small cell lung HOP-62; type: cell-based; details: Homo sapiens, 48 h exposure
# Experimental: as §1
# NCI-H23 = assay: NCI SRB cytotoxicity, non-small cell lung NCI-H23; type: cell-based; details: Homo sapiens, 48 h exposure
# Experimental: as §1
# NCIH322M = assay: NCI SRB cytotoxicity, non-small cell lung NCIH322M; type: cell-based; details: Homo sapiens, NCI-H322M, 48 h exposure
# Experimental: as §1
# NCI-H460 = assay: NCI SRB cytotoxicity, non-small cell lung NCI-H460; type: cell-based; details: Homo sapiens, 48 h exposure
# Experimental: as §1
# NCI-H522 = assay: NCI SRB cytotoxicity, non-small cell lung NCI-H522; type: cell-based; details: Homo sapiens, 48 h exposure
# Experimental: as §1
# HCT-116 = assay: NCI SRB cytotoxicity, colon HCT-116; type: cell-based; details: Homo sapiens, 48 h exposure
# Experimental: as §1
# KM12 = assay: NCI SRB cytotoxicity, colon KM12; type: cell-based; details: Homo sapiens, 48 h exposure
# Experimental: as §1
# SW-620 = assay: NCI SRB cytotoxicity, colon SW-620; type: cell-based; details: Homo sapiens, 48 h exposure
# Experimental: as §1
# SF-268 = assay: NCI SRB cytotoxicity, CNS SF-268; type: cell-based; details: Homo sapiens, 48 h exposure
# Experimental: as §1
# SNB-75 = assay: NCI SRB cytotoxicity, CNS SNB-75; type: cell-based; details: Homo sapiens, 48 h exposure
# Experimental: as §1
# LOX IMVI = assay: NCI SRB cytotoxicity, melanoma LOX IMVI; type: cell-based; details: Homo sapiens, 48 h exposure
# Experimental: as §1
# MDA-MB-435 [1] = assay: NCI SRB cytotoxicity, melanoma MDA-MB-435; type: cell-based; details: Homo sapiens, Melanoma panel MDA-MB-435, 48 h exposure
# Experimental: as §1
# SK-MEL-28 = assay: NCI SRB cytotoxicity, melanoma SK-MEL-28; type: cell-based; details: Homo sapiens, 48 h exposure
# Experimental: as §1
# SK-MEL-5 = assay: NCI SRB cytotoxicity, melanoma SK-MEL-5; type: cell-based; details: Homo sapiens, 48 h exposure
# Experimental: as §1
# UACC-257 = assay: NCI SRB cytotoxicity, melanoma UACC-257; type: cell-based; details: Homo sapiens, 48 h exposure
# Experimental: as §1
# IGROV1 = assay: NCI SRB cytotoxicity, ovarian IGROV1; type: cell-based; details: Homo sapiens, IGROV-1, 48 h exposure
# Experimental: as §1
# OVCAR-4 = assay: NCI SRB cytotoxicity, ovarian OVCAR-4; type: cell-based; details: Homo sapiens, 48 h exposure
# Experimental: as §1
# OVCAR-5 = assay: NCI SRB cytotoxicity, ovarian OVCAR-5; type: cell-based; details: Homo sapiens, 48 h exposure
# Experimental: as §1
# 786-0 = assay: NCI SRB cytotoxicity, renal 786-0; type: cell-based; details: Homo sapiens, 48 h exposure
# Experimental: as §1
# A498 = assay: NCI SRB cytotoxicity, renal A498; type: cell-based; details: Homo sapiens, 48 h exposure
# Experimental: as §1
# CAKI-1 = assay: NCI SRB cytotoxicity, renal CAKI-1; type: cell-based; details: Homo sapiens, 48 h exposure
# Experimental: as §1
# RXF 393 = assay: NCI SRB cytotoxicity, renal RXF 393; type: cell-based; details: Homo sapiens, 48 h exposure
# Experimental: as §1
# TK-10 = assay: NCI SRB cytotoxicity, renal TK-10; type: cell-based; details: Homo sapiens, 48 h exposure
# Experimental: as §1
# UO-31 = assay: NCI SRB cytotoxicity, renal UO-31; type: cell-based; details: Homo sapiens, 48 h exposure
# Experimental: as §1
# HS 578T = assay: NCI SRB cytotoxicity, breast HS 578T; type: cell-based; details: Homo sapiens, 48 h exposure
# Experimental: as §1
# MDA-MB-435 [2] = assay: NCI SRB cytotoxicity, breast panel MDA-MB-435; type: cell-based; details: Homo sapiens, 48 h exposure
# Experimental: as §1
# Leukemia = assay: NCI SRB cytotoxicity, leukemia panel average; type: cell-based, human; details: average of cell lines; for CC50: read-out: Log10 LC50 (concentration in mol/L causing 50% cell death) (converted)
# Experimental: as §1
# (§2) Each cancer type represents the average of six to eight different cancer cell lines.
# Non-small cell lung = assay: NCI SRB cytotoxicity, non-small cell lung panel average; type: cell-based, human; details: average of cell lines; for LC50: read-out: Log10 LC50 (concentration in mol/L causing 50% cell death) (converted)
# Experimental: as §1, §2
# Ovarian = assay: NCI SRB cytotoxicity, ovarian panel average; type: cell-based, human; details: average of cell lines; for CC50: read-out: Log10 LC50 (concentration in mol/L causing 50% cell death) (converted)
# Experimental: as §1, §2
# Prostate = assay: NCI SRB cytotoxicity, prostate panel average; type: cell-based, human; details: average of cell lines; for CC50: read-out: Log10 LC50 (concentration in mol/L causing 50% cell death) (converted)
# Experimental: as §1, §2
# Breast = assay: NCI SRB cytotoxicity, breast panel average; type: cell-based, human; details: average of cell lines; for CC50: read-out: Log10 LC50 (concentration in mol/L causing 50% cell death) (converted)
# Experimental: as §1, §2
# human tumor cell lines = assay: NCI SRB cytotoxicity, all fifty nine human tumor cell lines; type: cell-based; set-up: Log10 TGI mean graph midpoint (MG_MID): unit not given here; details: for GI50: Homo sapiens; for cytotoxicity: against cancer cell lines, in words; for LC50: read-out: Log10 LC50 mean graph midpoint (MG_MID) (converted)
# Experimental: as §1
# The mean graph midpoint values of Log10 TGI and Log10 LC50 as well as Log10 GI50 for compounds 7e, 8e, 10e, 11e, 12e, 13e and 8f is listed in Table-3. […] The mean graph mid points of Log10 TGI and Log10, LC50 have shown similar pattern to the log10 GI50 mean graph mid points.
# [3] = across fifty nine cell lines in nine cell panels, read-out: GI50 value range
# [4] = against human tumor cell lines, read-out: Log10 GI50 mean graph midpoint (MG_MID) (converted)
# [5] = Homo sapiens, read-out: Log10 GI50 (concentration in mol/L causing 50% growth inhibition) (converted)
compound,measurement,setting,value
"COc1cc(-c2cc(/C=C/C(=O)c3ccc4c(c3)OCO4)[nH]n2)cc(OC)c1OC [11e, (E)-1-(benzo[d][1,3]dioxol-5-yl)-3-(3-(3,4,5-trimethoxyphenyl)-1H-pyrazol-5-yl)prop-2-en-1-one]",GI50,CCRF-CEM,1.57 µM
same,GI50,RPMI-8226,0.51 µM
same,GI50,A549/ATCC,4.32 µM
same,GI50,HOP-62,2.18 µM
same,GI50,NCI-H23,2.02 µM
same,GI50,NCIH322M,3.01 µM
same,GI50,NCI-H460,2.12 µM
same,GI50,NCI-H522,1.03 µM
same,GI50,HCT-116,1.85 µM
same,GI50,KM12,1.76 µM
same,GI50,SW-620,2.47 µM
same,GI50,SF-268,2.97 µM
same,GI50,SNB-75,2.01 µM
same,GI50,LOX IMVI,1.82 µM
same,GI50,MDA-MB-435 [1],2.39 µM
same,GI50,SK-MEL-28,2.48 µM
same,GI50,SK-MEL-5,4.51 µM
same,GI50,UACC-257,2.46 µM
same,GI50,IGROV1,5 µM
same,GI50,OVCAR-4,3.8 µM
same,GI50,OVCAR-5,3.37 µM
same,GI50,786-0,2.33 µM
same,GI50,A498,2.76 µM
same,GI50,CAKI-1,5.51 µM
same,GI50,RXF 393,1.48 µM
same,GI50,TK-10,2.33 µM
same,GI50,UO-31,1.91 µM
same,GI50,HS 578T,3.71 µM
same,GI50,MDA-MB-435 [2],1.4 µM
same,CC50,Leukemia; Homo sapiens,0.0001 mol/L
same,Log10 GI50 (concentration in mol/L causing 50% growth inhibition),Leukemia,−4.91 mol/L
same,Log10 TGI (concentration in mol/L causing total growth inhibition (0% growth)),Leukemia,−5.00 mol/L
same,LC50,Non-small cell lung; Homo sapiens,53.7 µM
same,Log10 GI50 (concentration in mol/L causing 50% growth inhibition),Non-small cell lung,−4.27 mol/L
same,Log10 TGI (concentration in mol/L causing total growth inhibition (0% growth)),Non-small cell lung,−4.70 mol/L
same,CC50,Ovarian; Homo sapiens,100 µM
same,Log10 GI50 (concentration in mol/L causing 50% growth inhibition),Ovarian,−4 mol/L
same,Log10 TGI (concentration in mol/L causing total growth inhibition (0% growth)),Ovarian,−4.38 mol/L
same,CC50,Prostate; Homo sapiens,0.0001 mol/L
same,Log10 GI50 (concentration in mol/L causing 50% growth inhibition),Prostate,−4 mol/L
same,Log10 TGI (concentration in mol/L causing total growth inhibition (0% growth)),Prostate,−4.94 mol/L
same,CC50,Breast; Homo sapiens,0.000295 mol/L
same,Log10 GI50 (concentration in mol/L causing 50% growth inhibition),Breast,−3.53 mol/L
same,Log10 TGI (concentration in mol/L causing total growth inhibition (0% growth)),Breast,−4.60 mol/L
same,GI50,human tumor cell lines; [3],0.18 to 29.2 µM
same,GI50,human tumor cell lines; [4],2.69 µM
same,cytotoxicity,human tumor cell lines,significant cytotoxicity
same,Log10 TGI mean graph midpoint (MG_MID),human tumor cell lines; against human tumor cell lines,−4.77
same,LC50,human tumor cell lines; against human tumor cell lines,61.7 µM
"COc1cc(-c2cc(/C=C/C(=O)c3ccc(Cl)c(Cl)c3)[nH]n2)cc(OC)c1OC [12e, (E)-1-(3,4-dichlorophenyl)-3-(3-(3,4,5-trimethoxyphenyl)-1H-pyrazol-5-yl)prop-2-en-1-one]",GI50,CCRF-CEM,2.15 µM
same,GI50,RPMI-8226,0.53 µM
same,GI50,A549/ATCC,18.7 µM
same,GI50,HOP-62,1.72 µM
same,GI50,NCI-H23,23.4 µM
same,GI50,NCIH322M,14.5 µM
same,GI50,NCI-H460,4.9 µM
same,GI50,NCI-H522,1.33 µM
same,GI50,HCT-116,2.95 µM
same,GI50,KM12,3.37 µM
same,GI50,SW-620,8.63 µM
same,GI50,SF-268,13.7 µM
same,GI50,SNB-75,8.7 µM
same,GI50,LOX IMVI,3.39 µM
same,GI50,MDA-MB-435 [1],5.65 µM
same,GI50,SK-MEL-28,18.5 µM
same,GI50,SK-MEL-5,13.4 µM
same,GI50,UACC-257,16.3 µM
same,GI50,IGROV1,24 µM
same,GI50,OVCAR-4,10.8 µM
same,GI50,OVCAR-5,20.5 µM
same,GI50,786-0,10.1 µM
same,GI50,A498,5.89 µM
same,GI50,CAKI-1,16.9 µM
same,GI50,RXF 393,2.7 µM
same,GI50,TK-10,8.34 µM
same,GI50,UO-31,5.73 µM
same,GI50,HS 578T,16.6 µM
same,GI50,MDA-MB-435 [2],1.98 µM
same,GI50,Leukemia; [5],2.09 µM
same,CC50,Leukemia; Homo sapiens,0.0001 mol/L
same,Log10 TGI (concentration in mol/L causing total growth inhibition (0% growth)),Leukemia,−4.61 mol/L
same,GI50,Non-small cell lung; [5],6.61 µM
same,LC50,Non-small cell lung; Homo sapiens,200 µM
same,Log10 TGI (concentration in mol/L causing total growth inhibition (0% growth)),Non-small cell lung,−4.52 mol/L
same,GI50,Ovarian; [5],10 µM
same,CC50,Ovarian; Homo sapiens,95.5 µM
same,Log10 TGI (concentration in mol/L causing total growth inhibition (0% growth)),Ovarian,−4.27 mol/L
same,GI50,Prostate; [5],5.89 µM
same,CC50,Prostate; Homo sapiens,0.0001 mol/L
same,Log10 TGI (concentration in mol/L causing total growth inhibition (0% growth)),Prostate,−4.00 mol/L
same,GI50,Breast; [5],4.47 µM
same,CC50,Breast; Homo sapiens,0.0001 mol/L
same,Log10 TGI (concentration in mol/L causing total growth inhibition (0% growth)),Breast,−4.41 mol/L
same,GI50,human tumor cell lines; [3],0.18 to 29.2 µM
same,GI50,human tumor cell lines; [4],6.61 µM
same,cytotoxicity,human tumor cell lines,significant cytotoxicity
same,Log10 TGI mean graph midpoint (MG_MID),human tumor cell lines; against human tumor cell lines,−4.35
same,LC50,human tumor cell lines; against human tumor cell lines,89.1 µM
